A word on the pIC50: it is −log10 of the IC50, conventionally taken in molar units. High values mean a small IC50, low ones a large IC50.

pIC50: −log10 of the molar value. Where only a bound is given, the exact number is not on record here.

T1 sequence (Q16539 whole entry): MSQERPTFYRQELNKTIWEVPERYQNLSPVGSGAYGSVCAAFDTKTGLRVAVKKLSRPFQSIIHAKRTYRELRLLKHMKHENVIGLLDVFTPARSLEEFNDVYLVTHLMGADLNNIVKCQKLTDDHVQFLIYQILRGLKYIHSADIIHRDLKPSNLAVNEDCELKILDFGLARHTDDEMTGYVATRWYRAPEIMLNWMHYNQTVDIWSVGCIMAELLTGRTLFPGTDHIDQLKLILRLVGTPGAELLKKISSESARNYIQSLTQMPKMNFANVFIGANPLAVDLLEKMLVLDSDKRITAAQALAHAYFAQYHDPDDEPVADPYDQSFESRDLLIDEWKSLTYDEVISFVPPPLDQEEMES

This assay has as its target T1, p38α kinase (Homo sapiens, UniProt Q16539).
T1 construct: purchased Upstate
Put plainly: p38α assay (enzyme inhibition). The assay is classed as biochemical. Here is the method: Compound inhibitory activity was measured in a radioactive enzyme assay. The buffer composition was adopted from Lisnock et al (Biochemistry, 1998, vol. 37, pp 16573-16581). Peptide substrate was selected from Chen et al (Biochemistry, 2000, vol. 39, 2079-2087). The concentrations of p38α, [γ-^33P-ATP] and peptide were equal 1 nM, 85 uM and 250 uM, respectively. Incorporation of ^33P into peptide was measured using absorption on filtermats with subsequent wash with 100 mM phosphoric acid followed by ethanol.
cDNAs of human p38α and β were cloned by PCR. The α and β cDNAs were subcloned into DEST2 plasmid (Gateway, InVitrogen). His6-p38 fusion protein was expressed in E. coli and purified from bacterial lysates by affinity chromatography using Ni^+2-NTA-agarose. His6-p38 protein was activated by incubating with constitutively active MKK6. Active p38 was separated from MKK6 by affinity chromatography. Constitutively active MKK6 was generated in a manner similar to Raingeaud et al. (Mol. Cell. Biol., 1247-1255 (1996)).
The p38α assay employed is based on measurement of ADP released in the reaction of interest through NADH oxidation obtained by coupling with pyruvate kinase and lactate dehydrogenase reactions. The assays were performed in 384-well UV-plates. The final volume was 25 uL prepared from the addition of 2.5 uL compound dissolved in 10% DMSO, 17.5 uL of assay buffer and 5 uL of ATP. Assay buffer contains the following reagents to give final concentration in the assay: 25 mM HEPES, 20 mM 2-glycerophosphate, pH 7.6, 10 mM MgCl2, 0.1 mM sodium orthovanadate, 0.5 mM phosphoenolpyruvate, 0.12 mM NADH, 3.1 mg/ml LDH, 6.67 mg/ml pyruvate kinase, 0.25 mM peptide substrate, 2 mM DTT, 0.005% Tween 80 and 20 nM p38α kinase from Upstate. Test compounds are preincubated with p38α kinase for 60 min and the reaction started by addition of ATP to 0.15 mM final concentration. Reaction rates were measured at 340 nm using SpectraMax plate-reading spectrophotometer for 10 min at 37° C. Inhibition data were analyzed by non-linear least-squares regression using SigmaPlot.
Regarding `Cc1ccc(C(=O)NC2CC2)cc1Nc1nc(-c2cccc(C#N)c2)c(C(=O)NCc2ccccc2)s1` [Compound 28-9, 4-(3-Cyano-phenyl)-2-(5-cyclopropyl-carbamoyl-2-methyl-phenylamino)thia-zole-5-carboxylic acid benzylamide], the pIC50 was 7.00 to 7.30.

`Cc1ccc(C(=O)NC2CC2)cc1Nc1nc(-c2ccccc2)cs1` [Compound 3, N-Cyclopropyl-4-methyl-3-(4-phenyl-thiazol-2-ylamino)-benzamide] showed a pIC50 of less than 7.00.

In turn, `CONC(=O)c1ccc(C)c(Nc2nnc(-c3ccccc3)[nH]2)c1` [Compound 1, N-methoxy-4-methyl-3-(5-phenyl-4H-[1,2,4]triazol-3-ylamino)-benzamide] had a pIC50 of more than 7.30. Turning to `Cc1ccc(C(=O)NC2CC2)cc1Nc1nc(-c2cccc(CN)c2)c(C(=O)NCc2ccccc2)s1` [Compound 28-24, 4-(3-Aminomethyl-phenyl)-2-(5-cyclo-propylcarbamoyl-2-methylphenylamino) thiazole-5-carboxylic acid benzylamide], the negative logarithm of the IC50 (pIC50) is more than 7.30.

`Cc1cccc(-c2nc(Nc3cc(C(=O)NC4CC4)ccc3C)sc2C(=O)NCc2ccccc2)c1` [Compound 28-6, 2-(5-Cyclopropylcar-bamoyl-2-methyl-phenylamino)-4-m-tolyl-thiazole-5-carboxylic acid benzylamide] showed a pIC50 of 7.00 to 7.30. The result for `Cc1ccc(C(=O)NC2CC2)cc1Nc1ncc(C(=O)NCc2ccccc2)s1` [Compound 26, 2-(5-Cyclopropylcarbamoyl-2-methyl-phenylamino)-thiazole-5-carboxylic acid benzylamide] reads more than 7.30; that for `CONC(=O)c1ccc(C)c(Nc2noc(-c3ccccc3)n2)c1` [Compound 2, N-methoxy-4-methyl-3-(5-phenyl-[1,2,4]oxadiazol-3-ylamino)-benzamide], more than 7.30; that for `Cc1ccc(C(=O)NC2CC2)cc1Nc1nc(-c2ccc3[nH]ccc3c2)c(C(=O)NCc2ccccc2)s1` [Compound 28-40, 2-(5-Cyclopropylcar-bamoyl-2-methyl-phenylamino)-4-(1H-indol-5-yl)-thiazole-5-carboxylic acid benzylamide], less than 7.00.
